target: His-tagged recombinant human TrkA (Homo sapiens (Human), UniProt P04629); test: TrkA LanthaScreen Eu Kinase Binding Assay; settings: averaged IC50; LanthaScreen binding assay of Example A; read-out: TrkA Enzyme IC50
Description: TrkA binding activity was determined in a TrkA LanthaScreen™ Eu Kinase Binding Assay. 5 nM His-tagged recombinant human TrkA (6HIS tagged cytoplasmic domain from Invitrogen, Catalog No. PV3144) was incubated with 4 nM Alexa-Fluor® Tracer 236 (Invitrogen Cat. No. PV5592), 2 nM biotinylated anti-His (Invitrogen Cat. No. PV6090), and 2 nM europium-labeled Streptavidin (Invitrogen Cat. No. PV5899), in buffer (25 mM MOPS, pH 7.5, 5 mM MgCl2, 0.005% Triton X-100). Three fold serial dilutions of compounds of the invention in DMSO were added to a final percentage of 2% DMSO. After 60-minute incubation at 22° C., the reaction was measured using the EnVision mutlimode plate reader (PerkinElmer) via TR-FRET dual wavelength detection at […]. The percent of control was calculated using a ratiometric emission factor. The IC50 values were determined by fitting a four parameter model to the percent of control data.
Table A provides averaged IC50 values for compounds of the invention when tested in the assay of Example A, where A represents an averaged IC50 value<100 nM.

Chain of His-tagged recombinant human TrkA (P04629 440-796): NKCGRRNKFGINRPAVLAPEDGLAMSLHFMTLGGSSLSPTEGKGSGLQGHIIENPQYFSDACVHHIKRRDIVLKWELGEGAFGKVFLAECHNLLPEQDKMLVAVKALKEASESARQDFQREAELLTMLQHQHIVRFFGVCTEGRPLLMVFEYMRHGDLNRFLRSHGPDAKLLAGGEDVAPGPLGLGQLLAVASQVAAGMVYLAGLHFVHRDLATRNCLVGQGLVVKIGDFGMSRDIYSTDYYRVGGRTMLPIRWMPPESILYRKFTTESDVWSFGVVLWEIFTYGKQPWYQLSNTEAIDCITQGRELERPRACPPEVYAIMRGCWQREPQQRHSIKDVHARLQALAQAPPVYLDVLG

IC50, < 100 nM:
COCCN1C[C@@H](NC(=O)Nc2c(C)c(-c3ccc(=O)n(C)c3)nn2-c2ccccc2)[C@H](c2ccc(F)c(Cl)c2)C1 (relative stereo) [Example 22, 1-(trans-4-(3-chloro-4-fluorophenyl)-1-(2-methoxyethyl)pyrrolidin-3-yl)-3-(4-methyl-3-(1-methyl-6-oxo-1,6-dihydropyridin-3-yl)-1-phenyl-1H-pyrazol-5-yl)urea]
COCCN1C[C@@H](NC(=O)Nc2c(C)c(-c3ccc(=O)n(C)c3)nn2-c2ccccc2)[C@H](c2ccc(Cl)c(F)c2)C1 (relative stereo) [Example 23, 1-(trans-4-(4-chloro-3-fluorophenyl)-1-(2-methoxyethyl)pyrrolidin-3-yl)-3-(4-methyl-3-(1-methyl-6-oxo-1,6-dihydropyridin-3-yl)-1-phenyl-1H-pyrazol-5-yl)urea]
COCCN1C[C@@H](NC(=O)Nc2c(C)c(-c3ccc(=O)n(C)c3)nn2-c2ccccc2)[C@H](c2cc(F)cc(Cl)c2)C1 (relative stereo) [Example 24, 1-(trans-4-(3-chloro-5-fluorophenyl)-1-(2-methoxyethyl)pyrrolidin-3-yl)-3-(4-methyl-3-(1-methyl-6-oxo-1,6-dihydropyridin-3-yl)-1-phenyl-1H-pyrazol-5-yl)urea]
COCCN1C[C@@H](NC(=O)Nc2c(C)c(-c3ccc(=O)n(C)c3)nn2-c2ccccc2)[C@H](c2cccc(Cl)c2)C1 (relative stereo) [Example 25, 1-(trans-4-(3-chlorophenyl)-1-(2-methoxyethyl)pyrrolidin-3-yl)-3-(4-methyl-3-(1-methyl-6-oxo-1,6-dihydropyridin-3-yl)-1-phenyl-1H-pyrazol-5-yl)urea]
COCCN1C[C@@H](NC(=O)Nc2c(C)c(-c3ccc(C)nc3)nn2-c2ccccc2)[C@H](c2ccc(F)c(F)c2)C1 [Example 1, 1-((3S,4R)-4-(3,4-difluorophenyl)-1-(2-methoxyethyl)pyrrolidin-3-yl)-3-(4-methyl-3-(6-methylpyridin-3-yl)-1-phenyl-1H-pyrazol-5-yl)urea]
COCCN1C[C@@H](NC(=O)Nc2c(C)c(-c3cccnc3F)nn2-c2ccccc2)[C@H](c2ccc(F)c(F)c2)C1 [Example 3, 1-((3S,4R)-4-(3,4-difluorophenyl)-1-(2-methoxyethyl)pyrrolidin-3-yl)-3-(3-(2-fluoropyridin-3-yl)-4-methyl-1-phenyl-1H-pyrazol-5-yl)urea]
COCCN1C[C@@H](NC(=O)Nc2c(C)c(-c3cccnc3C)nn2-c2ccccc2)[C@H](c2ccc(F)c(F)c2)C1 [Example 4, 1-((3S,4R)-4-(3,4-difluorophenyl)-1-(2-methoxyethyl)pyrrolidin-3-yl)-3-(4-methyl-3-(2-methylpyridin-3-yl)-1-phenyl-1H-pyrazol-5-yl)urea]
COCCN1C[C@@H](NC(=O)Nc2c(C)c(-c3cncc(C)c3)nn2-c2ccccc2)[C@H](c2ccc(F)c(F)c2)C1 [Example 5, 1-((3S,4R)-4-(3,4-difluorophenyl)-1-(2-methoxyethyl)pyrrolidin-3-yl)-3-(4-methyl-3-(5-methylpyridin-3-yl)-1-phenyl-1H-pyrazol-5-yl)urea]
COCCN1C[C@@H](NC(=O)Nc2c(C)c(-c3cncc(C#N)c3)nn2-c2ccccc2)[C@H](c2ccc(F)c(F)c2)C1 [Example 7, 1-(3-(5-cyanopyridin-3-yl)-4-methyl-1-phenyl-1H-pyrazol-5-yl)-3-((3S,4R)-4-(3,4-difluorophenyl)-1-(2-methoxyethyl)pyrrolidin-3-yl)urea]
COCCN1C[C@@H](NC(=O)Nc2c(C)c(-c3ccc(OC)nc3)nn2-c2ccccc2)[C@H](c2ccc(F)c(F)c2)C1 [Example 8, 1-((3S,4R)-4-(3,4-difluorophenyl)-1-(2-methoxyethyl)pyrrolidin-3-yl)-3-(3-(6-methoxypyridin-3-yl)-4-methyl-1-phenyl-1H-pyrazol-5-yl)urea]
